Assay results: article PMC12587545, “Noncytotoxic polymyxin derivatives enhance antibiotic action against multidrug-resistant Gram-negative bacteria” (Antimicrobial Agents and Chemotherapy, 2025)
Entries after “also recorded” stand apart in the source; their conditions may differ.

Key:
E. coli = assay: Checkerboard assay (antibiotic potentiation); type: cell-based, Escherichia coli; conditions: for Interpretation: antibiotic + compound 1; for MICantibiotic + compound: antibiotic MIC with 8 µg/mL (5 µM) compound 1; for MICantibiotic: antibiotic alone; for Potentiation: of antibiotic by 8 µg/mL (5 µM) compound 1
A. baumannii AB027 = assay: Time-kill kinetics assay
Method: Bactericidal and bacteriostatic activity correspond to a ≥ 3 log10 and a < 3 log10 decrease in bacterial load after 24 h relative to the starting inoculum, respectively ([39]).
The time- and concentration-dependent killing of the antibiotic/compound combinations was assessed using the time-kill kinetics assay by following a previously described protocol ([27][–][29]). Bacterial culture grown overnight was diluted in phosphate-buffered saline (PBS) to 0.5 McFarland turbidity and was further diluted 1:50 in LB. Bacterial cultures treated with varying concentrations of antibiotic alone, compound alone, or the combination of antibiotic and compound were incubated in a shaking incubator at 250 rpm and at 37°C. At designated time points, 100 µL aliquots were taken from the culture tubes, serially diluted in PBS, and plated on LB agar plates. The bacterial colonies were then counted after incubation of the plates for 18 h at 37°C.

K. pneumoniae = assay: Checkerboard assay (antibiotic potentiation); type: cell-based, Klebsiella pneumoniae; conditions: for MICantibiotic + compound: antibiotic MIC with 8 µg/mL (5 µM) compound 1; for MICantibiotic: antibiotic alone; for Potentiation: of antibiotic by 8 µg/mL (5 µM) compound 1
E. cloacae = assay: Checkerboard assay (antibiotic potentiation); type: cell-based, Enterobacter cloacae; conditions: E. cloacae 121887 (colistin-resistant)
P. aeruginosa = assay: Checkerboard assay (antibiotic potentiation); type: cell-based, Pseudomonas aeruginosa
[1] = E. coli 94393 (colistin-resistant)
[2] = E. coli 94474 (colistin-resistant)
[3] = K. pneumoniae 113250 (colistin-resistant)
[4] = K. pneumoniae 116381, antibiotic + compound 1
[5] = P. aeruginosa 262-101856, antibiotic + compound 1
[6] = P. aeruginosa 264-105354, antibiotic + compound 1
[7] = P. aeruginosa PAO1, 0% FBS, zoliflodacin + compound 1

`C[C@@H]1CN2c3c(cc4c(N5C(=O)OC[C@@H]5C)noc4c3F)CC3(C(=O)NC(=O)NC3=O)[C@H]2[C@H](C)O1` [Zoliflodacin] was tested, and the Interpretation (E. coli; [1]) was “Synergy (FIC indices of ≤0.5 is synergistic)”, the “MICantibiotic + compound” value (E. coli; [1]) was 2 µg/mL and the MICantibiotic (E. coli; [1]) was 64 µg/mL. For the same compound, the Potentiation (E. coli; [1]) was 32 fold, the Interpretation (E. coli; [2]) was “Synergy (FIC indices of ≤0.5 is synergistic)” and the “MICantibiotic + compound” value (E. coli; [2]) was 4 µg/mL. For the same compound, the MICantibiotic (E. coli; [2]) was 64 µg/mL, the Potentiation (E. coli; [2]) was 16 fold and the “time-kill outcome” value (A. baumannii AB027; 0.5 µg/mL zoliflodacin + 8 µg/mL (5 µM) compound 1) was “appeared to eradicate the bacteria at 8 h; also recorded: slight regrowth after 24 h”. The “time-kill outcome” value (A. baumannii AB027; 8 µg/mL zoliflodacin + 8 µg/mL (5 µM) compound 1) was “appeared to eradicate the bacteria at 8 h”, the “time-kill outcome” value (A. baumannii AB027; monotherapy at 0.5 µg/mL) was “growth curves similar to that of untreated bacteria” and the “time-kill outcome” value (A. baumannii AB027; monotherapy at 8 µg/mL, LB, 37°C, up to 24 h) was “initially decreased bacterial loads, regrowth occurred after 8 h”. The “decrease in bacterial load from the starting inoculum and from the most active monotherapy” value (A. baumannii AB027; zoliflodacin + compound 1, both 8 µg/mL, after 24 h) was no less than 2 log10, the Interpretation (K. pneumoniae; K. pneumoniae 113250 (colistin-resistant), antibiotic + compound 1) was “Synergy (FIC indices of ≤0.5 is synergistic)” and the “MICantibiotic + compound” value (K. pneumoniae; [3]) was 4 µg/mL. The MICantibiotic (K. pneumoniae; [3]) was 128 µg/mL, the Potentiation (K. pneumoniae; [3]) was 32 fold and the FIC index (K. pneumoniae; [4]) was 0.063. The Interpretation (K. pneumoniae; [4]) was “Synergy (FIC indices of ≤0.5 is synergistic)”, the “MICantibiotic + compound” value (K. pneumoniae; K. pneumoniae 116381) was 0.25 µg/mL and the MICantibiotic (K. pneumoniae; K. pneumoniae 116381) was 256 µg/mL. The Potentiation (K. pneumoniae; K. pneumoniae 116381) was ≥512-fold, the Interpretation (E. cloacae; antibiotic + compound 1) was “Synergy (FIC indices of ≤0.5 is synergistic)” and the “MICantibiotic + compound” value (E. cloacae; antibiotic MIC with 8 µg/mL (5 µM) compound 1) was 4 µg/mL. For the same compound, the MICantibiotic (E. cloacae; antibiotic alone) was 32 µg/mL, the Potentiation (E. cloacae; of antibiotic by 8 µg/mL (5 µM) compound 1) was 8 fold and the Interpretation (P. aeruginosa; P. aeruginosa 259-96916, antibiotic + compound 1) was “Synergy (FIC indices of ≤0.5 is synergistic)”. The “MICantibiotic + compound” value (P. aeruginosa; P. aeruginosa 259-96916, antibiotic MIC with 8 µg/mL (5 µM) compound 1) was 0.125 µg/mL, the MICantibiotic (P. aeruginosa; P. aeruginosa 259-96916, antibiotic alone) was 128 µg/mL and the Potentiation (P. aeruginosa; P. aeruginosa 259-96916, of antibiotic by 8 µg/mL (5 µM) compound 1) was ≥1024-fold. For the same compound, the FIC index (P. aeruginosa; [5]) was “x < 0.078”, the Interpretation (P. aeruginosa; [5]) was “Synergy (FIC indices of ≤0.5 is synergistic)” and the “MICantibiotic + compound” value (P. aeruginosa; P. aeruginosa 262-101856, antibiotic MIC with 8 µg/mL (5 µM) compound 1) was 2 µg/mL. The MICantibiotic (P. aeruginosa; P. aeruginosa 262-101856, antibiotic alone) was greater than 128 µg/mL, the Potentiation (P. aeruginosa; P. aeruginosa 262-101856, of antibiotic by 8 µg/mL (5 µM) compound 1) was ≥128-fold and the FIC index (P. aeruginosa; [6]) was “x < 0.066”. For the same compound, the Interpretation (P. aeruginosa; [6]) was “Synergy (FIC indices of ≤0.5 is synergistic)”, the “MICantibiotic + compound” value (P. aeruginosa; P. aeruginosa 264-105354, antibiotic MIC with 8 µg/mL (5 µM) compound 1) was 0.5 µg/mL and the MICantibiotic (P. aeruginosa; P. aeruginosa 264-105354, antibiotic alone) was greater than 128 µg/mL. For the same compound, the Potentiation (P. aeruginosa; P. aeruginosa 264-105354, of antibiotic by 8 µg/mL (5 µM) compound 1) was ≥512-fold, the “MICantibiotic + compound” value (P. aeruginosa; P. aeruginosa 101243 (colistin-resistant), antibiotic MIC with 8 µg/mL (5 µM) compound 1) was greater than 128 µg/mL and the MICantibiotic (P. aeruginosa; P. aeruginosa 101243 (colistin-resistant), antibiotic alone) was greater than 128 µg/mL. The “MICantibiotic + compound” value (P. aeruginosa; P. aeruginosa 114228 (colistin-resistant), antibiotic MIC with 8 µg/mL (5 µM) compound 1) was greater than 128 µg/mL, the MICantibiotic (P. aeruginosa; P. aeruginosa 114228 (colistin-resistant), antibiotic alone) was greater than 128 µg/mL and the Potentiation (P. aeruginosa; P. aeruginosa PAO1, 0% FBS, of zoliflodacin by 8 µg/mL (5 µM) compound 1) was ≥32-fold. The FIC index (P. aeruginosa; [7]) was “x < 0.125”, the Interpretation (P. aeruginosa; [7]) was “Synergy (FIC indices of ≤0.5 is synergistic)” and the “MICantibiotic + compound” value (P. aeruginosa; P. aeruginosa PAO1, 0% FBS, zoliflodacin MIC with 8 µg/mL (5 µM) compound 1) was 8 µg/mL. The MICantibiotic (P. aeruginosa; P. aeruginosa PAO1, 0% FBS, zoliflodacin alone) was greater than 128 µg/mL, the Potentiation (P. aeruginosa; P. aeruginosa PAO1, 10% FBS, of zoliflodacin by 8 µg/mL (5 µM) compound 1) was 64 fold and the Interpretation (P. aeruginosa; P. aeruginosa PAO1, 10% FBS, zoliflodacin + compound 1) was “Synergy (FIC indices of ≤0.5 is synergistic)”. For the same compound, the “MICantibiotic + compound” value (P. aeruginosa; P. aeruginosa PAO1, 10% FBS, zoliflodacin MIC with 8 µg/mL (5 µM) compound 1) was 8 µg/mL, the MICantibiotic (P. aeruginosa; P. aeruginosa PAO1, 10% FBS, zoliflodacin alone) was 512 µg/mL and the Potentiation (P. aeruginosa; P. aeruginosa PAO1, 25% FBS, of zoliflodacin by 8 µg/mL (5 µM) compound 1) was 1 fold. For the same compound, the Interpretation (P. aeruginosa; P. aeruginosa PAO1, 25% FBS, zoliflodacin + compound 1) was “Additive (0.5 < × ≤ 4 is additive)”, the “MICantibiotic + compound” value (P. aeruginosa; P. aeruginosa PAO1, 25% FBS, zoliflodacin MIC with 8 µg/mL (5 µM) compound 1) was 1024 µg/mL and the MICantibiotic (P. aeruginosa; P. aeruginosa PAO1, 25% FBS, zoliflodacin alone) was 1024 µg/mL. For the same compound, the Potentiation (P. aeruginosa; P. aeruginosa PAO1, 50% FBS, of zoliflodacin by 8 µg/mL (5 µM) compound 1) was 1 fold, the Interpretation (P. aeruginosa; P. aeruginosa PAO1, 50% FBS, zoliflodacin + compound 1) was “Additive (0.5 < × ≤ 4 is additive)” and the “MICantibiotic + compound” value (P. aeruginosa; P. aeruginosa PAO1, 50% FBS, zoliflodacin MIC with 8 µg/mL (5 µM) compound 1) was 1024 µg/mL. The MICantibiotic (P. aeruginosa; P. aeruginosa PAO1, 50% FBS, zoliflodacin alone) was 1024 µg/mL, the Potentiation (P. aeruginosa; P. aeruginosa PAO1, [Mg2+] 25 mM, of zoliflodacin by 8 µg/mL (5 µM) compound 1) was 1 fold and the Interpretation (P. aeruginosa; P. aeruginosa PAO1, [Mg2+] 25 mM, zoliflodacin + compound 1) was “Additive (0.5 < × ≤ 4 is additive)”. For the same compound, the “MICantibiotic + compound” value (P. aeruginosa; P. aeruginosa PAO1, [Mg2+] 25 mM, zoliflodacin MIC with 8 µg/mL (5 µM) compound 1) was 1024 µg/mL, the MICantibiotic (P. aeruginosa; P. aeruginosa PAO1, [Mg2+] 25 mM, zoliflodacin alone) was 1024 µg/mL and the Potentiation (P. aeruginosa; P. aeruginosa PAO1, [Mg2+] 0.4–0.5 mM, of zoliflodacin by 8 µg/mL (5 µM) compound 1) was ≥32-fold. The FIC index (P. aeruginosa; P. aeruginosa PAO1, [Mg2+] 0.4–0.5 mM, zoliflodacin + compound 1) was “x < 0.125”.
